Measurements published in patent US20210186947A1, “TOMM6-INTERACTING EXTRACTS AND COMPOUNDS FOR USE IN THE TREATMENT AND PROPHYLAXIS OF NERVOUS SYSTEM DISEASES, ATHEROSCLEROSIS, HEPATITIS B INFECTION AND HUMAN PAPILLOMA VIRUS (HPV) INFECTION” (ETH ZURICH, priority 2018, published 2021).

How the values were obtained:
[1] = tested on: Abeta plaques; test: Abeta plaque load in Tg2576 mice, immunohistology with BAM-10 antibody; format: in vivo; details: 18-month-old Tg2576 mice treated for 6 months
[2] = tested on: atherosclerotic lesions in the aorta; test: Atherosclerotic lesion area in oil red O-stained aortas of ApoE-/- mice; format: in vivo; details: 9-month-old ApoE-/- mice, 10 mg/kg/d in drinking water for 8 months
Protocol: ApoE−/− mice (Taconic Biosciences, Rensselaer, N.Y., USA) with deficiency of apolipoprotein E (ApoE−/−) due to disruption of the endogenous ApoE gene were used as a genetic model of atherosclerosis (Piedrahita et al., Proc. Natl. Acad. Sci. U.S.A., 89, 4471-4475, 1992). Atherosclerotic lesion area was determined by quantitative image analysis with oil red O-stained aortas. Total plasma cholesterol was determined by a commercial kit (Sigma). Mice were kept on a 12 h dark and 12 h light cycle, had free access to food and water, and were fed a standard rodent chow (AIN-95-based diet without vitamin E supplementation and with 7% fat and 0.15% cholesterol). For the study, we used ApoE−/− mice on a B6 (C57BL/6J) background and non-transgenic B6 control mice. Alizarin treatment (10 mg/kg/day in drinking water) was initiated at an age of 4 weeks and continued for eight months until the end of the observation period. […]
(§1) Alzheimer's Disease (AD) is the most frequent form of dementia in the elderly. […] Atherosclerotic lesion area was assessed with oil red O-stained aortas isolated from 9-month-old ApoE−/− mice (FIG. 17A). […] The aortic expression levels of neuronal marker genes of alizarin-treated ApoE−/− mice were determined compared to untreated ApoE−/− mice and untreated B6 mice without atherosclerosis (FIG. 17D,E).

[3] = tested on: neuropeptide Y (Npy); test: Whole genome microarray gene expression analysis of aortic genes: Npy; format: in vivo; details: ApoE-/- mice, 10 mg/kg/day for 8 months
Protocol: (§2) Whole genome microarray gene expression profiling was performed with aortic specimens isolated from 9-month-old ApoE−/− mice without treatment and with oral treatment for 8 months with alizarin (10 mg/kg/day), and untreated age-matched B6 control mice. Total RNA was isolated by the RNeasy Mini kit according to the protocol of the manufacturer (Qiagen). RNA purity was between 1.8 and 2 as determined by the absorbance ratio of 260/280. RNA quality and absence of signs of degradation were also controlled by RNA electrophoresis on a denaturing agarose gel by the presence of bright bands of 28S and 18S ribosomal RNA. Total RNA was processed for whole genome microarray gene expression profiling with the GeneChip One-Cycle Target Labeling System (Affymetrix) according to the protocol of the manufacturer (Affymetrix GeneChip Expression Analysis Technical Manual Rev. 5). […]
as §1

[4] = tested on: synaptosomal nerve-associated protein 25 (Snap25); test: Whole genome microarray gene expression analysis of aortic genes: Snap25; format: in vivo; details: ApoE-/- mice, 10 mg/kg/day for 8 months
Protocol: as §2, §1

[5] = Measurement of serum level in dogs by HPLC; format: in vivo, German shepherd dogs; details: for peak serum concentration: t=1 h
Protocol: Serum concentrations of alizarin were determined with serum isolated from the blood of male and female German shepherd dogs (age: 8-9 months) taken at different time points (0.5 h, 1 h, 2 h, 4 h, 6 h, 8 h, 24 h) after oral intake of the indicated doses for 4 weeks. In addition, serum concentrations of alizarin (Compound-1) were determined in male and female Sprague Dawley rats (body weight: 200-250 g) treated for 1 month and/or three months by oral gavage of alizarin at a once daily dose of 100 mg/kg, 50 mg/kg, 25 mg/kg and 12.5 mg/kg. Serum proteins were removed by acetonitrile precipitation, and alizarin was extracted by chloroform before separation on an HPLC-C18 column (Poroshell 120 EC-C18, 3.0×50 mm, Agilent) with an HPLC system (Agilent 1100 Series) and detection at OD245 nm. For quantitative determination of Compound-7 and Compound-10F in rat and dog serum, serum proteins were also removed by acetonitrile precipitation before HPLC analysis as detailed above and detection at OD254 nm.

[6] = Tolerability / toxicity in dogs during four weeks of oral treatment; format: in vivo; details: once daily oral dose up to 6 mg/kg/d
Protocol: Sub-chronic toxicity studies in dogs (German Shepherd dogs) and rats (Sprague Dawley rats) were performed by the Center of Applied Analytical and Veterinary Studies, Cairo, Egypt.

[7] = tested on: Salmonella strain TA1537; details: cited from earlier work
[8] = humans; cited from earlier work

O=C1c2ccccc2C(=O)c2c1ccc(O)c2O [Compound-1, 1,2-dihydroxyanthraquinone]
Abeta plaque load in hippocampal and brain cortical areas [1]: significantly inhibited the accumulation of Abeta plaques | atherosclerotic lesion area, lower compared to untreated ApoE-/- mice [2]: 3.6 fold | aortic expression level of Npy [3]: not down-regulated and maintained at the levels of the non-transgenic B6 controls | aortic expression level of Snap25 [4]: not down-regulated and maintained at the levels of the non-transgenic B6 controls | oral bioavailability / serum concentrations after oral intake [5]: achieves therapeutic serum concentrations | time of second serum peak ([5]; after oral intake): 4 h | peak serum concentration ([5]; repeated once daily oral dose of 2 mg/kg): 0.146 ± 0.017 µg/mL | peak serum concentration ([5]; repeated once daily oral dose of 6 mg/kg): 0.467 ± 0.022 µg/mL | time of peak serum concentration ([5]; repeated once daily oral intake of 2 mg/kg/day and 6 mg/kg/day): 1 h | adverse effects (behaviour, food intake, weight gain, cardiovascular parameters, blood cells, clinical chemistry) [6]: did not induce any detectable adverse effects | mutagenicity in the Ames test [7]: could be mutagenic | toxicity of long-term treatment for several years [8]: is not toxic
